Here are results for 14 compounds from PMC10511408, “Novel iodoquinazolinones bearing sulfonamide moiety as potential antioxidants and neuroprotectors” (Scientific Reports, 2023).

Where two headings read alike, the source gives them in different places.

Data set [1] addresses acetylcholine esterase (AChE) (Homo sapiens, UniProt P22303). The data set is described as follows: biochemical. On the procedure: The cholinesterase enzymes' inhibitory activity was evaluated using modified Osman et al.[45] method. Briefly, samples were initially dissolved in DMSO to achieve a concentration of 10 mg/mL. Then 0.1 mL of the sample was diluted to 1 mL methanol to reach the concentration of 1 mg/mL (concentration 1). From concentration (1), 0.1 mL was further diluted to 1 mL to reach the concentration of 0.1 mg/mL (concentration 2). Concentration 1 (1 mg/mL) will become 0.1 mg/mL inside the plate and concentration 2 will become 0.01 mg/mL due to the addition of the reagents of the assay that dilute the sample ten folds. […] Then 20 μL of the sample/standard solution was added followed by 140 μL of buffer (1). The mixture was allowed to stand for 15 min at room temperature.

Data set [2] is described as follows: Free radical scavenging activity (DPPH) assay. To be noted: mean ± S.E (n = 3). On the procedure:
The antioxidant activities of all newly synthesized compounds were measured as radical scavenging activities using 1,1-diphenyl-2-picrylhydrazyl (DPPH) (Sigma Chemical Co., Steinheim, Germany) and compared with ascorbic acid as a reference standard (Sigma-Aldrich Chemie GmbH, Taufkirchen, Germany)[46].
Where, 1 mL of the test compounds or ascorbic acid at concentrations (12.5, 25, 50 and 100 mg/mL) were mixed with 1 ml of the DPPH solution. The mixtures were incubated for 30 min at room temperature in dark. The absorbance was read using a JENWAY 6315 spectrophotometer (Keison Products, Chelmsford, England) at 517 nm against blank.
It was carried out in triplicate, and average values were used to determine the inhibitory percentage of DPPH according to the following equation: percent inhibition = [(B − A)/B]*100, where A is the absorbance of the compound or standard and B is the absorbance of blank. IC50 (µM) of each compound was calculated according to the nonlinear regression dose response-inhibition curve using Prism 5.03 (GraphPad, San Diego, CA, USA) and expressed as mean ± standard error (S.E).
(The DPPH test is a chemical assay of radical scavenging.)

Data set [3] concerns Glutathione (GSH). The data set is described as follows: GSH level in brain tissue homogenate of irradiated mice. Type of data set: in vivo. To be noted: 14 at 30 mg/kg/day i.p. for 7 days, 5 Gy; compared to irradiated mice. On the procedure:
(§1) Twenty-one mice were blindly allocated into three groups (n = 7). The first group (control) was injected i.p. with 10% DMSO, daily, for 7 days. The second one (irradiated) was treated as a control, and after 1 h from the last DMSO injection, the mice were exposed to 5 Gy gamma radiation. A third group (Compound 14 + irradiation) received 30 mg/kg/day i.p. (1/10 LD50) of compound 14, daily for 7 days. Then on the last day, after 1 h of injection, animals were irradiated at a dose of 5 Gy. After 24 h. of the last injection, behavioral tests were carried out. Immediately after behavioral test, mice were anesthetized using urethane ([…] i.p.)[49] and sacrificed by cervical dislocation then brain tissues were dissected out, rinsed with ice-cold saline, and dried on a filter paper. Then it was homogenized in ice-cold 0.1 M phosphate buffer saline (pH = 7.4) and stored at – 80 °C for subsequent biochemical analysis.
(§2) The antioxidant activity of compound 14 was measured by estimation of MPO activity using an ELISA Kit from MyBioSource Cat.No.: CSB-E08723m (Houston, TX., USA) as well as the level of GSH was evaluated using a colorimetric kit according to the method of E. Beutler[52].

In data set [4] the test system is Myeloperoxidase (MPO). Kind of data set: MPO in brain tissue homogenate of irradiated mice (ELISA). Type of data set: in vivo. To be noted: 14 at 30 mg/kg/day i.p. for 7 days, 5 Gy; compared to irradiated mice. Here is the method:
as §1, §2

Data set [5] in a line: Acute toxicity study (LD50). To be noted: mouse, in vivo, ip; albino male mice, i.p.; read-out: LD50 (median lethal dose). On the procedure:
Lethal dose fifty (LD50) was determined for the most promising compound 14 to estimate its acute toxicity in albino male mice. […] Consequently, one-tenth of this dose was selected as the therapeutic dose for further evaluation of the potential radioprotective effects of 14. This was following our previous studies[42],[63],[68].

Data set [6] relates to irradiated mice. The data set is described as follows: Forced swimming test in irradiated mice. In kind it is in vivo. To be noted: 14 at 30 mg/kg/day i.p. for 7 days before 5 Gy irradiation; compared to radiation only. On the procedure:
as §1
(§3) All behavioral tests have been carried out under blind conditions to avoid any bias in evaluating the animal's behavior. Mice were allowed to a pre-test session a day before scarification for habituation.
Mice were independently forced to swim in an open cylindrical container (22 cm diameter, 40 cm height) that contained water (23–25 °C).

The test system of data set [7] is irradiated mice. The data set is described as follows: Open field test in irradiated mice. In kind it is in vivo. To be noted: 14 at 30 mg/kg/day i.p. for 7 days before 5 Gy irradiation. Here is the method:
as §1, §3
This evaluates locomotors and exploratory activities in mice where, the apparatus is transparent walls and a white floor 30 × 30 × 15 cm, divided into 16 squares of equal area. Each mouse was placed in the center of the open field test apparatus and allowed to roam freely for 5 min and latency time (ie, time taken to start moving) was detected as well as locomotion frequency as ambulation (ie, number of squares crossed), rearing frequency (ie, number of times the mice stand on its hind legs or with its forearm against the wall or in the free air)[50].

Data set [8] concerns Acetylcholinesterase (AChE). Kind of data set: AChE in brain tissue homogenate of irradiated mice (ELISA). Type of data set: in vivo. Conditions: 14 at 30 mg/kg/day i.p. for 7 days, 5 Gy; compared to radiation only. On the procedure:
(§4) Twenty-one mice were blindly allocated into three groups (n = 7). The first group (control) was injected i.p. with 10% DMSO, daily, for 7 days. […]. A third group (Compound 14 + irradiation) received 30 mg/kg/day i.p. (1/10 LD50) of compound 14, daily for 7 days. Then on the last day, after 1 h of injection, animals were irradiated at a dose of 5 Gy. After 24 h. of the last injection, behavioral tests were carried out. […]. Then it was homogenized in ice-cold 0.1 M phosphate buffer saline (pH = 7.4) and stored at – 80 °C for subsequent biochemical analysis.
(§5) Brain homogenates were used for measuring AChE using Mouse Acetylcholinesterase (AChE) ELISA Kit content using the Mouse Acetylcholinesterase ELISA Kit from MyBioSource Cat.No. MBS260553 (San Diego, CA., USA) according to the manufacturer’s instructions. The generation of norepinephrine (NE) in brain tissues was measured using an Eliza kit (MBS2600834) from MyBioSource (San Diego, CA, USA) according to the manufacturer’s instructions.
A general note: An ELISA detects its analyte on a solid surface through an enzyme-linked reagent.

The test system of data set [9] is Norepinephrine (NE). Kind of data set: Norepinephrine in brain tissue homogenate of irradiated mice (ELISA). In kind it is in vivo. Conditions: 14 at 30 mg/kg/day i.p. for 7 days, 5 Gy; Fig. 6B. On the procedure: as §4, §5
[10] abbreviates: in vitro, mean ± S.E (n = 3), read-out: AChE IC50.

Chain of acetylcholine esterase (AChE) (P22303 32-614): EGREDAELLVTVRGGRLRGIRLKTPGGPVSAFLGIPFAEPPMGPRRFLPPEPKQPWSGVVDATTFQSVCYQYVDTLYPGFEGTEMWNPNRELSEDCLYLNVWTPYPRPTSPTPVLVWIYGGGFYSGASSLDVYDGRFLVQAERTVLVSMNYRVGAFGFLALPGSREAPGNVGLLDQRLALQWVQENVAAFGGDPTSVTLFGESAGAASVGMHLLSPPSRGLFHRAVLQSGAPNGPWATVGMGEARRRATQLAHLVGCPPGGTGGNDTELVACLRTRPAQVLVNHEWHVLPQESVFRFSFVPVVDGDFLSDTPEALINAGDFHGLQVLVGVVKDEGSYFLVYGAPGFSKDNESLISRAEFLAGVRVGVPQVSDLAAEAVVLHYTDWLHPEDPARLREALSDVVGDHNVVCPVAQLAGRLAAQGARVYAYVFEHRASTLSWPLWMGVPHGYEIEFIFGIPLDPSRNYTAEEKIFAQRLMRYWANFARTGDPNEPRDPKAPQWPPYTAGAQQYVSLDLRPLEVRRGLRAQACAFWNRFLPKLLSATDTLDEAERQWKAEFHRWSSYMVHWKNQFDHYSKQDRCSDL

As for `NS(=O)(=O)c1ccc(-n2c(SCC(=O)NN3CCOCC3)nc3ccc(I)cc3c2=O)cc1` [Compound 9, 2-(6-Iodo-4-oxo-3-(4-sulfamoylphenyl)-3,4-dihydroquinazolin-2-ylthio)-N-morpholinoacetamide], the values for the IC50 in data set [1] (setting [10]) and in data set [2] were more than 0.1 µM and 148 ± 1.53 µM, respectively.
The matching figures for `NS(=O)(=O)c1ccc(-n2c(SCC(=O)Nc3nccs3)nc3ccc(I)cc3c2=O)cc1` [Compound 6, 2-(6-Iodo-4-oxo-3-(4-sulfamoylphenyl)-3,4-dihydroquinazolin-2-ylthio)-N-(thiazol-2-yl) acetamide]: more than 0.1 µM and 143.4 ± 1.12 µM.
The matching figures for `Cc1cc(NC(=O)CSc2nc3ccc(I)cc3c(=O)n2-c2ccc(S(N)(=O)=O)cc2)no1` [Compound 5, 2-(6-Iodo-4-oxo-3-(4-sulfamoylphenyl)-3,4-dihydroquinazolin-2-ylthio)-N-(5-methylisoxazol-3-yl) acetamide]: more than 0.1 µM and 149.8 ± 1.26 µM.
On to `NS(=O)(=O)c1ccc(-n2c(SCC(=O)NC3CCN(Cc4ccccc4)CC3)nc3ccc(I)cc3c2=O)cc1` [Compound 11, N-(1-Benzylpiperidin-4-yl)-2-(6-iodo-4-oxo-3-(4-sulfamoylphenyl)-3,4-dihydroquinazolin-2-ylthio) acetamide], for which the values for the IC50 in [1] (setting [10]) and in [2] were 0.0239 ± 0.00141 µM and 109 ± 1.09 µM, respectively.
Consider `NS(=O)(=O)c1ccc(-n2c(SCC(=O)Nc3c[nH]c(=O)[nH]c3=O)nc3ccc(I)cc3c2=O)cc1` [Compound 15, N-(2,4-Dioxo-1,2,3,4-tetrahydropyrimidin-5-yl)-2-(6-iodo-4-oxo-3-(4-sulfamoylphenyl)-3,4-dihydroquinazolin-2-ylthio) acetamide], for which the IC50 was more than 0.1 µM in data set [1] (setting [10]) and 136.3 ± 1.3 µM in [2].
Take `CCOC(=O)N1CCC(NC(=O)CSc2nc3ccc(I)cc3c(=O)n2-c2ccc(S(N)(=O)=O)cc2)CC1` [Compound 10, Ethyl 4-(2-(6-iodo-4-oxo-3-(4-sulfamoylphenyl)-3,4-dihydroquinazolin-2-ylthio)acetamido) piperidine-1-carboxylate]: the IC50 was more than 0.1 µM in [1] and 154.9 ± 1.24 µM in [2].
`CCOc1ccc2nc(NC(=O)CSc3nc4ccc(I)cc4c(=O)n3-c3ccc(S(N)(=O)=O)cc3)sc2c1` [Compound 7, N-(6-Ethoxybenzo[d]thiazol-2-yl)-2-(6-iodo-4-oxo-3-(4-sulfamoylphenyl)-3,4-dihydroquinazolin-2-ylthio) acetamide]: the IC50 in data set [1] (setting [10]) stood at 0.09 ± 0.00583 µM; in data set [2], 118.8 ± 0.92 µM.
On to `CCOC(=O)c1cccc(NC(=O)CSc2nc3ccc(I)cc3c(=O)n2-c2ccc(S(N)(=O)=O)cc2)c1` [Compound 13, Ethyl 3-(2-(6-iodo-4-oxo-3-(4-sulfamoylphenyl)-3,4-dihydroquinazolin-2-ylthio)acetamido)benzoate], for which the values for the IC50 in [1] (setting [10]) and in data set [2] were 0.0748 ± 0.00306 µM and 129.1 ± 1.03 µM, respectively.
The matching figures for `CCOC(=O)c1ccccc1NC(=O)CSc1nc2ccc(I)cc2c(=O)n1-c1ccc(S(N)(=O)=O)cc1` [Compound 12, Ethyl 2-(2-(6-iodo-4-oxo-3-(4-sulfamoylphenyl)-3,4-dihydroquinazolin-2-ylthio)acetamido)benzoate]: 0.0607 ± 0.0028 µM and 122.3 ± 0.92 µM.
For the compound `Cn1c(NC(=O)CSc2nc3ccc(I)cc3c(=O)n2-c2ccc(S(N)(=O)=O)cc2)cc(=O)n(C)c1=O` [Compound 16, N-(1,3-Dimethyl-2,6-dioxo-1,2,3,6-tetrahydropyrimidin-4-yl)-2-(6-iodo-4-oxo-3-(4-sulfamoylphenyl)-3,4-dihydroquinazolin-2-ylthio) acetamide], the IC50 in [1] (setting [10]) worked out at 0.0862 ± 0.00214 µM; in data set [2], 137.3 ± 0.29 µM.
For the compound `CN1C(=O)c2ccc(NC(=O)CSc3nc4ccc(I)cc4c(=O)n3-c3ccc(S(N)(=O)=O)cc3)cc2C1=O` [Compound 17, 2-(6-Iodo 4-oxo-3-(4-sulfamoylphenyl)-3,4-dihydroquinazolin-2-ylthio)-N-(2-methyl-1,3-dioxoisoindolin-5-yl) acetamide], the IC50 in [1] (setting [10]) was determined as 0.0774 ± 0.00129 µM; in [2], 127 ± 1.93 µM.
In [2], `O=C1O[C@H]([C@@H](O)CO)C(O)=C1O` [Ascorbic acid, ascorbic acid, reference compound] came in with an IC50 of 112.8 ± 1.03 µM.
As for `NS(=O)(=O)c1ccc(-n2c(SCC(=O)Nc3nc4ccc([N+](=O)[O-])cc4s3)nc3ccc(I)cc3c2=O)cc1` [Compound 8, 2-(6-Iodo-4-oxo-3-(4-sulfamoylphenyl)-3,4-dihydroquinazolin-2-ylthio)-N-(6-nitrobenzo[d]thiazol-2-yl) acetamide], the IC50 was more than 0.1 µM in [1] (setting [10]) and 177 ± 1.99 µM in data set [2].
Turning to `NS(=O)(=O)c1ccc(-n2c(SCC(=O)Nc3cnccn3)nc3ccc(I)cc3c2=O)cc1` [Compound 14, 2-(6-Iodo-4-oxo-3-(4-sulfamoylphenyl)-3,4-dihydroquinazolin-2-ylthio)-N-(pyrazin-2-yl) acetamide], the figures for the IC50 in [1] (setting [10]) and in data set [2] were 0.0116 ± 0.00045 µM and 95.5 ± 1.67 µM, respectively. In data set [3], the “increase in brain GSH levels” value is on record as 17%. For the same compound, the “decrease in brain MPO” value in data set [4] came to 39.6%. Moreover, the LD50 in [5] worked out at 300 mg/kg. Also, the “decrease in mean immobility time (forced swimming test)” value in data set [6] is listed as 33%. The “ambulation (open field test), effect of radiation abolished by” value in data set [7] is recorded as 31%. The “open field parameters (latency, ambulation, rearing)” value in data set [7] is reported as “normalized all open field parameters”. The “decrease in latency time (open field test)” value in [7] (compared with mice that received radiation alone) is recorded as 72.4%. Besides, in data set [8], the “decrease in brain AChE” value turned out to be 21%. In addition, in data set [9], the “Norepinephrine (NE), effect of radiation abolished by” value was determined as 25%.

For orientation: IC50 means the point on the concentration scale where inhibition reaches its midpoint. Usually LD50 stands for the dose at which mortality reaches 50%.
